# Test results reported in patent US11684614B2, “Formulations of hydroxypyridonate actinide/lanthanide decorporation agents” (priority 2017, dated 2023).
# “And” between values parts separate entries of the source, which are not always exact repeats. Equal values may be shown once.
# Tests used:
# [1] = In vitro human liver microsome stability; format: in vitro ADME
# CYP2D6 = CYP2D6 (Homo sapiens, UniProt P10635); assay: CYP inhibition; format: in vitro ADME
# [2] = Plasma protein binding, dog; format: in vitro ADME; conditions: tested at 10 μg/ml
# Procedure: (§1) Plasma protein binding differed across species; it was greatest in dog (95%), intermediate in human (29%), and lowest in rat (5%) when tested at 10 μg/ml.
# [3] = GLP single oral dose pharmacokinetic assessment in beagle dogs; format: in vivo
# Procedure: Pharmacokinetic parameters in beagle dogs after a single oral administration of formulated capsules was determined in a GLP study. A validated bioanalytical method was used to determine the plasma concentration in 3 dogs/sex after capsule administration of 37.5, 75, and 150 mg/kg (50, 100, and 200 μmol/kg) of clinically formulated 3,4,3-L1(1,2-HOPO). […] Similarly, mean exposure, based on AUCinf, was 1979±777 hr·ng/ml and 4741 hr·ng/ml for low-dose males and females, respectively; 4317±1721 hr·ng/ml and 8610 hr·ng/ml for mid-dose males and females, respectively; and 12022±5458 hr·ng/ml and 8305±1607 hr·ng/ml for high-dose males and females, respectively. […] The mean t½ was consistently short across dose groups and ranged from 0.5 to 0.9 hr.
# [4] = Distribution coefficient measurement; format: physicochemical; conditions: for Dow / Log(Dow): listed as 3,4,3-LI(1,2-HOPO)
# CYP1A2 = target: T1, CYP1A2 (Homo sapiens, UniProt P05177); assay: CYP inhibition; format: in vitro ADME
# T1 sequence (P05177 1-516): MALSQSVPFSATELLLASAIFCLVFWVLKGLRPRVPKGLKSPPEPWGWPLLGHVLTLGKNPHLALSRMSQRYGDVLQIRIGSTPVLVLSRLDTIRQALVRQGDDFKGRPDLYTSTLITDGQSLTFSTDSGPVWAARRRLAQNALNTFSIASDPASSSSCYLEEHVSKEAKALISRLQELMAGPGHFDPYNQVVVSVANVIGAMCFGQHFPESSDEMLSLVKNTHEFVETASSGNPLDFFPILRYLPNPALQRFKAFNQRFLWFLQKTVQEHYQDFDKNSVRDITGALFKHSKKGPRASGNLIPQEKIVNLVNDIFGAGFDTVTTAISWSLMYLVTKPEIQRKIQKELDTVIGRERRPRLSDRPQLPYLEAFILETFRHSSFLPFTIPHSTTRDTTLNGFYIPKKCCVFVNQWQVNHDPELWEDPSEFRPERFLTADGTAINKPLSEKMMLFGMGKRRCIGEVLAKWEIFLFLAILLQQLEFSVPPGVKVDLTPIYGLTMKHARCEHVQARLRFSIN
# [5] = Plasma protein binding, human; format: in vitro ADME; conditions: tested at 10 μg/ml
# Procedure: as §1
# [6] = Stability in gastric fluid; format: in vitro ADME
# [7] = Buffering Agent 1: 7.5 E−02 M HCl, pH 1.18, samples A11-A13
# [8] = Buffering Agent 1: 7.5 E−02 M HCl, pH 1.20, samples B11-B13
# [9] = Buffering Agent 2: 7.5 E−03 M HCl, pH 2.15, samples A11-A13
# [10] = Buffering Agent 2: 7.5 E−03 M HCl, pH 2.16, samples B11-B13
# [11] = Buffering Agent 3: 7.5 E−04 M HCl, pH 3.21, samples A31-A33
# [12] = Buffering Agent 4: 1 E−02 M Acetic Acid, pH 4.19, samples A41-A43
# [13] = Buffering Agent 5: 1 E−02 M Acetic Acid, pH 5.13, samples A51-A53
# [14] = Buffering Agent 5: 1 E−02 M Acetic Acid, pH 5.20, samples B51-B53
# [15] = Buffering Agent 6: 1 E−02 M MES, pH 6.30, samples A61-A63
# [16] = Buffering Agent 7: 1 E−02 M HEPES, pH 6.75, samples A71-A73
# [17] = Buffering Agent 8: 1 E−02 M HEPES, pH 7.42, samples A81-A83
# [18] = Buffering Agent 9: 1 E−02 M HEPES, pH 8.00, samples A91-A93
# Sequence of CYP2D6 (P10635 whole entry): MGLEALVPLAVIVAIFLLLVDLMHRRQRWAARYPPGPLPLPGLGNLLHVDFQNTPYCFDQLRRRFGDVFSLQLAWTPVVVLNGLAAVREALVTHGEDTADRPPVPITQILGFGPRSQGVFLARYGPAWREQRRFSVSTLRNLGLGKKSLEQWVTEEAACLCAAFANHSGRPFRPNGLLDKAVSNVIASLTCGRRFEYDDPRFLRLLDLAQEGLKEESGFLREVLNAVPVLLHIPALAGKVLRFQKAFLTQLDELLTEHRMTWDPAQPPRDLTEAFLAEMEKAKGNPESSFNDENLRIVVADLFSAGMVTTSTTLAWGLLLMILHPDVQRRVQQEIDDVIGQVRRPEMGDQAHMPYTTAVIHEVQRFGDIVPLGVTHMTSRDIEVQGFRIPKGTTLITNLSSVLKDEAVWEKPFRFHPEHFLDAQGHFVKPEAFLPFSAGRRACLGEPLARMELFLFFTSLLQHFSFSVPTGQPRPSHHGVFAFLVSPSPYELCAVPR
smiles,measurement,setting,value
"O=C(NCCCN(CCCCN(CCCNC(=O)c1cccc(=O)n1O)C(=O)c1cccc(=O)n1O)C(=O)c1cccc(=O)n1O)c1cccc(=O)n1O [3,4,3-L1(1,2-HOPO)]",stability in human liver microsomes,[1],relatively stable
same,inhibition of CYP2D6 activity,CYP2D6,did not inhibit
same,Plasma protein binding,[2],95%
same,mean AUCinf,[3]; high-dose (150 mg/kg) females,8305 ± 1607 ng·h/mL
same,mean AUCinf,[3]; high-dose (150 mg/kg) males,12022 ± 5458 ng·h/mL
same,"mean Cmax and AUCinf, females compared with males",[3]; low and mid doses,1.7- to 2.4 fold
same,mean AUCinf,[3]; low-dose (37.5 mg/kg) females,4741 ng·h/mL
same,mean AUCinf,[3]; low-dose (37.5 mg/kg) males,1979 ± 777 ng·h/mL
same,mean AUCinf,[3]; mid-dose (75 mg/kg) females,8610 ng·h/mL
same,mean AUCinf,[3]; mid-dose (75 mg/kg) males,4317 ± 1721 ng·h/mL
same,mean t½,"[3]; oral, across dose groups, dogs",30 to 54 min
same,Tmax,"[3]; single oral capsule dose, 37.5, 75, and 150 mg/kg, dogs",36 to 66 min
same,Dow,[4]; [7],0.122 and 0.115 and 0.112
same,Log(Dow),[4]; [7],−0.915 and −0.938 and −0.952
same,"Log(Dow), unlabelled summary row (mean of samples)","[4]; Buffering Agent 1: 7.5 E−02 M HCl, pH 1.18, series A",−0.935
same,Dow,[4]; [8],0.318 and 0.327 and 0.285
same,Log(Dow),[4]; [8],−0.497 and −0.485 and −0.545
same,"Log(Dow), unlabelled summary row (mean of samples)","[4]; Buffering Agent 1: 7.5 E−02 M HCl, pH 1.20, series B",−0.509
same,Dow,[4]; [9],0.093 and 0.105 and 0.110
same,Log(Dow),[4]; [9],−1.031 and −0.980 and −0.958
same,"Log(Dow), unlabelled summary row (mean of samples)","[4]; Buffering Agent 2: 7.5 E−03 M HCl, pH 2.15, series A",−0.990
same,Dow,[4]; [10],0.503 and 0.491 and 0.469
same,Log(Dow),[4]; [10],−0.299 and −0.309 and −0.329
same,"Log(Dow), unlabelled summary row (mean of samples)","[4]; Buffering Agent 2: 7.5 E−03 M HCl, pH 2.16, series B",−0.312
same,"Log(Dow), unlabelled summary row (mean of samples)","[4]; Buffering Agent 3: 7.5 E−04 M HCl, pH 3.13, series B",−1.499
same,Dow,[4]; [11],0.180 and 0.170 and 0.184
same,Log(Dow),[4]; [11],−0.744 and −0.769 and −0.735
same,"Log(Dow), unlabelled summary row (mean of samples)","[4]; Buffering Agent 3: 7.5 E−04 M HCl, pH 3.21, series A",−0.750
same,"Log(Dow), unlabelled summary row (mean of samples)","[4]; Buffering Agent 4: 1 E−02 M Acetic Acid, pH 4.00, series B",−1.566
same,Dow,[4]; [12],0.076 and 0.061 and 0.068
same,Log(Dow),[4]; [12],−1.119 and −1.218 and −1.166
same,"Log(Dow), unlabelled summary row (mean of samples)","[4]; Buffering Agent 4: 1 E−02 M Acetic Acid, pH 4.19, series A",−1.168
same,Dow,[4]; [13],0.044 and 0.027 and 0.050
same,Log(Dow),[4]; [13],−1.360 and −1.564 and −1.299
same,"Log(Dow), unlabelled summary row (mean of samples)","[4]; Buffering Agent 5: 1 E−02 M Acetic Acid, pH 5.13, series A",−1.408
same,Dow,[4]; [14],0.056 and 0.082 and 0.103
same,Log(Dow),[4]; [14],−1.251 and −1.086 and −0.989
same,"Log(Dow), unlabelled summary row (mean of samples)","[4]; Buffering Agent 5: 1 E−02 M Acetic Acid, pH 5.20, series B",−1.109
same,Log(Dow),"[4]; Buffering Agent 6: 1 E−02 M MES, pH 6.15, samples B61-B63",−1.374 and −1.645
same,"Log(Dow), unlabelled summary row (mean of samples)","[4]; Buffering Agent 6: 1 E−02 M MES, pH 6.15, series B (B61 prints #NUM!)",−1.510
same,Dow,[4]; [15],0.064 and 0.077 and 0.082
same,Log(Dow),[4]; [15],−1.191 and −1.113 and −1.086
same,"Log(Dow), unlabelled summary row (mean of samples)","[4]; Buffering Agent 6: 1 E−02 M MES, pH 6.30, series A",−1.130
same,Dow,[4]; [16],0.150 and 0.120 and 0.105
same,Log(Dow),[4]; [16],−0.824 and −0.921 and −0.977
same,"Log(Dow), unlabelled summary row (mean of samples)","[4]; Buffering Agent 7: 1 E−02 M HEPES, pH 6.75, series A",−0.908
same,"Log(Dow), unlabelled summary row (mean of samples)","[4]; Buffering Agent 7: 1 E−02 M HEPES, pH 6.83, series B",−1.680
same,Dow,[4]; [17],0.130 and 0.132 and 0.107
same,Log(Dow),[4]; [17],−0.885 and −0.879 and −0.970
same,"Log(Dow), unlabelled summary row (mean of samples)","[4]; Buffering Agent 8: 1 E−02 M HEPES, pH 7.42, series A",−0.912
same,"Log(Dow), unlabelled summary row (mean of samples)","[4]; Buffering Agent 8: 1 E−02 M HEPES, pH 7.46, series B",−1.173
same,Dow,[4]; [18],0.110 and 0.074 and 0.132
same,Log(Dow),[4]; [18],−0.957 and −1.128 and −0.879
same,"Log(Dow), unlabelled summary row (mean of samples)","[4]; Buffering Agent 9: 1 E−02 M HEPES, pH 8.00, series A",−0.988
same,"Log(Dow), unlabelled summary row (mean of samples)","[4]; Buffering Agent 9: 1 E−02 M HEPES, pH 8.00, series B",−1.920
same,inhibition of CYP1A2 activity,CYP1A2,did not inhibit
same,Plasma protein binding,[5],29%
same,stability in gastric fluid,[6],degraded slightly
